Measurements: patent publication US10899822B2, “Compositions comprising D-amino acid peptides and methods of production and use thereof for inhibiting autoantibodies” (The Board of Regents of the University of Oklahoma, priority 2013, dated 2021)
Entries after “also recorded” stand apart in the source; their conditions may differ. Marks after values point to notes of the source that are not given here. Each block holds one compound with its values, some of them ahead of it. Square brackets hold non-standard residues; d marks the D form. Ends that are not written are not given here. Peptide text beside a SMILES is read from it.

Experiments:
[1] = In vitro stability in synthetic gastric fluid (SGF, pepsin+HCL, pH 1.2) at 37° C., HPLC; assay type: in vitro ADME; details: pH 1.2, 37° C.
Protocol: FIG. 13 graphically illustrates an in vitro stability analysis of the native and RID peptides in synthetic gastric fluid (SGF, pepsin+HCL, pH 1.2) at 37° C., as measured by HPLC. This Figure indicates the rate of proteolysis of the AT1R-ECL2 L-amino acid peptide and the AT1R-ECL2 RID peptide under these conditions.
In FIG. 13, the AT1R-ECL2 L-amino acid peptide and the AT1R-ECL2 RID peptide were each separately incubated in artificial gastric juice (SGF, pepsin+HCL, pH 1.2) at 37° C., and proteolysis of the peptides was measured by HPLC.

[2] = In vitro stability in human serum at 37° C., HPLC; assay type: in vitro ADME
β1AR-AAb [3] = assay: Effective refractory period (ERP) in β1AR-immunized rabbits; assay type: in vivo, rabbit
Text: FIG. 8 contains a flow chart depicting the protocol of the procedures performed in rabbits in a study to determine the effective refractory period (ERP) in atrial cells in rabbit-models with pre-immune, post-immune (β1AR-immunization), and post-immune plus β1AR-ECL2 RID peptide administration. The ERP inversely is one parameter of the susceptibility of the cardiac cells to induction of tachyarrhythmias.
(§1) The RID peptide was utilized in a study measuring the effective refractory period (ERP) in five New Zealand white rabbits. The procedures performed are outlined in the flow chart of FIG. 8. The ERP was measured during a pre-immune state and following immunization with β1AR ECL2 peptide to generate autoantibodies thereto, as described previously (Li et al. Am J Physiol Heart Circ Physiol. (2014) 306:H422-428). This was followed by administration of T4 (40 μg/kg), and an additive effect was observed on induced atrial tachyarrhythmias with the appearance of AF in a significant percentage of the T4 treated animals. […] In addition, the ERP in the rabbits was measured following administration of the β1AR-ECL2 RID peptide 90 minutes after T4.
FIG. 10 illustrates the mean ERP for an atrial catheter lead.

β1AR-AAb [4] = assay: Heart rate and sustained arrhythmias in β1AR-AAb + T4 excess animals; assay type: in vivo, rabbit
Protocol: as §1

[5] = tested on: AT1R activating autoantibodies; assay: Isolated rat cremaster artery contractility induced by serum of AT1R 2nd ECL peptide immunized rabbits; parameters: species or system rabbit; details: with ARB losartan
Text: FIG. 4, Panel A illustrates the dose related contractile effect of serum from an AT1R 2nd ECL peptide immunized rabbit on an isolated rat cremaster artery. The in vitro contractile changes were expressed as % change (decrease) in diameter with the increasing dosage concentration (dilution). These effects are blocked by the selective angiotensin II receptor blocker (ARB) losartan.
There was a significant increase of in vitro cremaster contractility (p<0.01) in the post-immune state compared to the pre-immune values.
FIG. 5 illustrates the effect of in vitro incubation of the RID peptide with serum containing AT1R activating autoantibodies (rabbit) on cremaster artery contractility. […] The same response was observed when the serum was pre-incubated with the L-amino acid target peptide (FIG. 5, Panel B).
Data provided herein were obtained with immunized rabbit serum containing autoantibodies that will stimulate AT1R receptors transfected into CHO cells. […] A bioassay for Angiotensin II-like activity using an isolated perfused cremaster artery in vitro has also been developed.

AT1R autoantibodies = assay: Binding of iodinated RID peptide to autoantibodies; details: iodine atom in the molecular structure
Protocol: While therapeutic methods of using the RID peptides have been envisioned above, the scope of the presently disclosed inventive concepts also includes diagnostic uses of the RID peptides as well. The studies shown in FIGS. 12 and 13 were conducted at high concentrations (>250 μg/ml), and these concentrations are too high for study of absorption and use as part of a direct assay of serum binding to autoantibodies.

β1AR-AAb [6] = assay: cAMP production in β1AR-CHO cells stimulated by post-immune sera; assay type: cell-based, rabbit
[7] = rabbit, in vivo

- rate of proteolysis compared with the RID peptide [1]: proteolyzed at a much faster rate
Compound: C[C@H](N)C(=O)N[C@@H](Cc1ccccc1)C(=O)N[C@@H](Cc1c[nH]cn1)C(=O)N[C@@H](Cc1ccc(O)cc1)C(=O)N[C@@H](CCC(=O)O)C(=O)N[C@@H](CO)C(=O)N[C@@H](CCC(N)=O)C(=O)O [AT1R-ECL2 L-amino acid peptide, AFHYESQ, reference compound] (H-AFHYESQ-OH; N-terminus and C-terminus assumed)

- peptide remaining intact ([2]; 24 hours (data not shown)): 80%
- integrity at two hours [2]: resistance
- integrity at two hours ([2]; listed as AT2R-ECL2 RID peptide): remained intact
- integrity for four hours ([1]; four hours): remained intact
- remaining at 6 h ([1]; synthetic gastric fluid (SGF), six hours, read-out: peptide remaining): 60%
Compound: C[C@@H](NC(=O)[C@@H](Cc1ccccc1)NC(=O)[C@@H](Cc1c[nH]cn1)NC(=O)[C@@H](Cc1ccc(O)cc1)NC(=O)[C@@H](CCC(=O)O)NC(=O)[C@@H](CO)NC(=O)[C@H](N)CCC(N)=O)C(=O)O [AT1R-ECL2 RID peptide, qseyhfa] (H-[dQ][dS][dE][dY][dH][dF][dA]-OH; N-terminus and C-terminus assumed)

Compound: N[C@@H](Cc1cc(I)c(Oc2cc(I)c(O)c(I)c2)c(I)c1)C(=O)O [T4, thyroxine, reference compound]
- effect on ERP (β1AR-AAb [3]; post-immune + T4 (40 μg/kg), P<0.01): additive
- #sustained arrhythmias/#induction attempts (β1AR-AAb [4]; Post-immune + T4): 20/20**^#
- Heart rate (β1AR-AAb [4]; Post-immune + T4): 280 ± 56 beats/min
- Sustained AF (β1AR-AAb [4]; Post-immune + T4): 2/20
- Sustained AFL (β1AR-AAb [4]; Post-immune + T4): 0/20
- Sustained AT (β1AR-AAb [4]; Post-immune + T4): 2/20
- Sustained JT (β1AR-AAb [4]; Post-immune + T4): 2/20
- Sustained ST (β1AR-AAb [4]; Post-immune + T4): 11/20**
- Sustained VT (β1AR-AAb [4]; Post-immune + T4): 3/20

Compound: CCCCc1nc(Cl)c(CO)n1Cc1ccc(-c2ccccc2-c2nn[nH]n2)cc1 [losartan]
- contractile effect of immunized rabbit serum on isolated rat cremaster artery (% decrease in diameter) [5]: blocked

Compound: AT1R-ECL2 RID peptide has been iodinated: AT1R-ECL2 RID peptide directly iodinated; iodine atom in the structure blocked binding ([dQ][dS][dE][dY][dH][dF][dA]; also: directly iodinated, place not given here)
- binding to autoantibodies (AT1R autoantibodies): blocked binding

Compound: dcckpdnycr [β1AR-ECL2 RID peptide]
- effect on ERP (msec), right atrial lead (β1AR-AAb [3]; post-immune + RID peptide IV, over 90 minutes): dramatic rise in ERP; also recorded: reverses the shortening of the ERP
- effect on ERP (β1AR-AAb [3]; post-immune + T4 + RID peptide, 90 minutes after T4): reversed the β1AR-AAb effects but not the effect caused by T4
- #sustained arrhythmias/#induction attempts (β1AR-AAb [4]; Post-immune + T4 + β1AR-RID): 6/20*^++
- Heart rate (β1AR-AAb [4]; Post-immune + T4 + β1AR-RID): 241 ± 35**^##+ beats/min
- Sustained AF (β1AR-AAb [4]; Post-immune + T4 + β1AR-RID): 0/20
- Sustained AFL (β1AR-AAb [4]; Post-immune + T4 + β1AR-RID): 0/20
- Sustained AT (β1AR-AAb [4]; Post-immune + T4 + β1AR-RID): 1/20
- Sustained JT (β1AR-AAb [4]; Post-immune + T4 + β1AR-RID): 2/20
- Sustained ST (β1AR-AAb [4]; Post-immune + T4 + β1AR-RID): 3/20^+
- Sustained VT (β1AR-AAb [4]; Post-immune + T4 + β1AR-RID): 0/20
- sera-induced β1AR activation of cAMP production in β1AR-transfected cells (β1AR-AAb [6]; sera pre-incubated with RID peptide, P<0.01): effectively blocked
- ability of post-immune sera to stimulate cAMP in β1AR-CHO cells (β1AR-AAb [6]; sera taken 90 after IV injection of 1 mg/Kg BW): marked reduction of the ability to stimulate cAMP
- anti-RID antibodies by ELISA (immunogenicity) [7]: failed to demonstrate anti-RID antibodies
